# Laboratory results as given in ChEMBL document CHEMBL5096127, “Using ChEMBL to complement schistosome drug discovery” (2023).
# The source made the active and inactive calls. How the calls were made is not given here.
# Assays:
# Schistosoma mansoni [1] = experiment: In vitro activity on S. mansoni schistosomula at 50 uM; format: functional, organism-based; set-up: test concentration 50 uM, temperature 37 degree C, time incubation 72 h; conditions: Puerto Rican
# Schistosoma mansoni [2] = experiment: In vitro activity on S. mansoni schistosomula at 10 uM; format: functional, organism-based; set-up: test concentration 10 uM, temperature 37 degree C, time incubation 72 h; conditions: Puerto Rican
# Schistosoma mansoni [3] = experiment: EC50 on S. mansoni schistosomula; format: functional, organism-based; conditions: Puerto Rican
# Schistosoma mansoni [4] = format: functional, Puerto Rican; conditions: temperature 37 degree C; tested at 10 uM; Worm movement inhibition (compared to DMSO control)_lower value 0 %; Worm movement inhibition (compared to DMSO control)_upper value 100 %
# 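Wherever Worm movement inhibition is given: in vitro assay using adult worms.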
SMILES,In vitro activity (Schistosoma mansoni [1]),In vitro activity (Schistosoma mansoni [2]),EC50 (Schistosoma mansoni [3]),Worm movement inhibition (Schistosoma mansoni [4])
CCNC(=O)c1cc2c(-c3cc(OCCN4CCCC4)c(Cl)cc3Cl)nc(N)nc2s1,Active,Active,547 nM,91.33%
CNc1ncc2cc(-c3ccc(-c4cccc(C)n4)cc3Cl)c(=O)n(C[C@H]3OC[C@H](N)CO3)c2n1,Active,Active,2840 nM,98.47%
CC[C@H](C)[C@H](NC(=O)[C@H]([C@@H](C)CC)N(C)C(C)=O)C(=O)N[C@H](C(=O)N[C@@H](CC(C)C)C(=O)[C@@]1(C)CO1)[C@@H](C)O [EPOXOMYCIN],Active,Active,226 nM,97.15%
Cc1n[nH]c2ccc(-c3cncc(OC[C@@H](N)Cc4ccccc4)c3)cc12,Active,Active,2930 nM,93.77%
CC1(C)CC(=O)c2c(C(F)(F)F)nn(-c3ccc(C(N)=O)c(N[C@H]4CC[C@H](O)CC4)c3)c2C1 [SNX-2112],Active,Active,1940 nM,25.47%
COc1cc(N2CCC(N3CCN(C)CC3)CC2)ccc1Nc1ncc(Cl)c(Nc2ccccc2S(=O)(=O)C(C)C)n1 [TAE-684],Active,Active,2400 nM,99.53%
Cc1[nH]c(/C=C2\C(=O)Nc3ccc(S(=O)(=O)Cc4c(Cl)cccc4Cl)cc32)c(C)c1C(=O)N1CCC[C@@H]1CN1CCCC1 [PHA-665752],Active,Active,4510 nM,99.71%
OCCCNc1cc(-c2ccnc(Nc3cccc(Cl)c3)n2)ccn1,Active,Active,410 nM,98.94%
Cl.Cl.O=C(NCCCNc1nc(Nc2cccc(CN3CCOCC3)c2)ncc1C1CC1)C1CCC1,Active,Active,3130 nM,97.58%
COc1cc(N2CCN(C)CC2)ccc1Nc1nccc(-c2cn(C)c3cnccc23)n1,Active,Active,3400 nM,93.2%
CC(/C=C/C(=O)NO)=C\[C@@H](C)C(=O)c1ccc(N(C)C)cc1 [TRICHOSTATIN],Active,Active,558 nM,8.13%
CCNC(=O)c1noc(-c2cc(C(C)C)c(O)cc2O)c1-c1ccc(CN2CCOCC2)cc1 [LUMINESPIB],Active,Active,194 nM,40.22%
COc1ccc(-c2nc(N3CCOCC3)c3sc(CN(C)c4ncc(C(=O)NO)cn4)cc3n2)cn1 [FIMEPINOSTAT],Active,Active,606 nM,56.87%
C[C@@H]1C[C@H]2O[C@@H]2/C=C\C=C\C(=O)Cc2c(Cl)c(O)cc(O)c2C(=O)O1 [RADICICOL],Active,Active,1830 nM,82.43%
